US20040254197A1, “Injections for eye tissues containing drug bonded to polyethlene glycol” (SANTEN PHARMACEUTICAL CO., LTD., priority 2001, published 2004)

Experiments:
[1] = system: krypton laser-induced choroidal neovascularization; assay: Effects of subconjunctivally administered betamethasone-PEG conjugate on krypton laser-induced choroidal neovascularization in rats; format: in vivo; conditions: single subconjunctival injection 50 μl (BM-PEG 40 mg/ml, BP 2.8 mg/ml), 14th day after photocoagulation, vehicle 71.9%
Method: 1) A one ml/kg mixed solution containing an aqueous ketamine hydrochloride solution (50 mg/ml) and an aqueous xylazine hydrochloride solution (50 mg/ml) in a ratio of 7:1 was administered intramuscularly to rats to anesthetize them systemically.
2) A 0.5% tropicamide-0.5% phenylephrine hydrochloride solution was instilled into the eyes to cause mydriasis, and then photocoagulation was performed with a krypton laser photocoagulation apparatus (red) under coagulation conditions of spot size of 100 μm, output of 100 mW and coagulation time of 0.1 sec.
3) Cover glass for observing tissues was used as a contact lens, the photocoagulation was carried out in a posterior pole portion of ocular fundus at eight spots per eye sparsely avoiding thick retinal vessels. The photocoagulation was carried out focusing on the retinal posterior portion in order to cut a Bruch's membrane. After the photocoagulation, the ocular fundus was photographed. […]
6) In the fluorescein fundus angiography, a photocoagulation site where fluorescence diapedesis was not observed was judged as negative, and a photocoagulation site where apparent fluorescence diapedesis was observed was judged as positive. When there are two photocoagulation sites where a little fluorescence diapedesis was observed, they were judged as positive. Each neovascularization exhibition rate was calculated according to the following equation. […]

[2] = Intraocular pharmacokinetic tests by fluorophotometry in rabbits after injection into the vitreous body; format: in vivo, white rabbits; conditions: rabbit, intravitreous injection
Method: Intraocular pharmacokinetic tests by fluorophotometry in rabbits It is difficult in terms of measurement techniques to actually trace transfer of slight amounts of tissues using the drug-PEG conjugate prepared above. Accordingly, fluorescein, which has fluorescence and can be measured with high sensitivity, was used as a model drug, a fluorescein-PEG conjugate (hereinafter referred to as “FL-PEG”) was synthesized, and intraocular pharmacokinetics tests were performed. Fluorescein sodium (hereinafter referred to as “FL”) was used as a comparative substance.
A 2.6% sterilized glycerin solution (10 ml) was added to FL-PEG (18 mg), and this liquid was stirred to dissolve FL-PEG to prepare an injection. A 10 μg/ml injection containing FL was prepared in the similar manner.
1) A mixed solution containing an aqueous ketamine hydrochloride solution (50 mg/ml) and an aqueous xylazine hydrochloride (50 mg/ml) in a ratio of 7:3 was administered intramuscularly to white rabbits to anesthetize.
2) A tropicamide (0.5%)/phenylephrine hydrochloride (0.5%) ophthalmic solution was instilled into eyes to cause mydriasis in the eyes.
3) The eyes were anesthetized with an oxybuprocaine hydrochloride (0.5%) ophthalmic solution.
4) The above-mentioned FL-PEG or FL liquid preparation was injected into the center of a vitreous body of one eye from an ocular pars plana in an amount of […] respectively with a syringe equipped with a 30 G needle.
5) Intraocular fluorescence intensity was measured with a fluorophotometry apparatus with the laps of time immediately after the administration to the vitreous body and at 1, 2, 4, 7, 15, 18, 23, 28, 35, 42, 49 and 56 days. A calibration curves were prepared, changes in concentration in the vitreous body and a retina were determined. Next, respective half-lives were calculated from the changes in concentration by a moment method. The above-mentioned operation 2) was carried out before the intraocular fluorescence intensity was measured.
The numerical values in the table are the average of three samples respectively. The half-life of FL-PEG in the vitreous body was calculated using measured values on forth to 28th day. […] The half-life of FL in the vitreous body was calculated using measured values immediately after the administration and on first day after the administration.

Half-life in vitreous body ([2]; fluorophotometry, moment method, average of three samples) | half-life ([2]; white, vitreous body, other: injection into the vitreous body (intravitreal), 1 µg/eye, fluorophotometry, moment method, average of three samples) [h] | Compound | Neovascularization exhibition rate (%) [1] [%] | Detection in the retina (changes in concentration, FIG. 2) ([2]; followed for 56 days) | Detection in the vitreous body (changes in concentration, FIG. 1) ([2]; followed for 56 days)
 |  | C[C@H]1C[C@H]2[C@@H]3CCC4=CC(=O)C=C[C@]4(C)[C@@]3(F)[C@@H](O)C[C@]2(C)[C@@]1(O)C(=O)COP(=O)(O)O [BP, Betamethasone phosphate] | 50.0 |  | 
less than four | < 4 | O=C1OC2(c3ccc(O)cc3Oc3cc(O)ccc32)c2ccccc21 [FL, Fluorescein sodium] |  | detected only on first day after the administration | not detected on second day after the administration or later
